Laboratory results taken from patent publication US5231091A, “Bis-arylphosphate ester antagonists of platelet activating factor” (priority 1992, dated 1993).
Where a name gives a salt, the structure may show the parent alone.

tested on: PAF induced lethality; assay: PAF induced lethality in mice; format: in vivo; conditions: I.P. 10 mg/kg; corrected for control lethality
Method: PAF given I.V. to mice causes an immediate hypotensive shock leading to death in 1 hour or less. Compounds were given intraperitoneally or P.O. at various times before the PAF challenge. Animals alive after 2 hours were counted and the activity of test compounds expressed as % survival corrected for any control (saline treated) animals which survived the PAF challenge.

SMILES	PAF induced lethality, % protection
CCCCCCCCCCCCCCOc1cccc(OP(=O)([O-])Oc2cccc(C[n+]3ccsc3)c2)c1C(=O)OC [3-[[3-[[Hydroxy[2-(methoxycarbonyl)-3-(tetradecyloxy)-phenoxy]phosphinyl]oxy]phenyl]methyl]-thiazolium, hydroxide, inner salt]	12%
CCCCCCCCCCCCCCOc1cccc(OP(=O)([O-])Oc2cccc(C[n+]3csc(C)c3)c2)c1C(=O)OC [3-[[3-[[Hydroxy[2-(methoxycarbonyl)-3-(tetradecyloxy)phenoxy]phosphinyl]oxy]phenyl]methyl]-5-methylthiazolium, hydroxide, inner salt]	0%
CCCCCCCCCCCCOc1cc(C(C)(C)C)c(OP(=O)([O-])Oc2cccc(C[n+]3csc(C)c3)c2)cc1C(C)(C)C [3-[[3-[[[2,5-Bis(1,1-dimethylethyl)-4-(dodecyloxy)phenoxy] hydroxyphosphinyl]oxy]phenyl]methyl]-5-methyl-thiazolium, hydroxide, inner salt]	36%
CCCCCCCCCCCCCCCCOc1ccc(OP(=O)([O-])Oc2cccc(C[n+]3ccsc3)c2)cc1 [3-[[3-[[[4-(Hexadecyloxy)phenoxy]hydroxyphosphinyl]-oxy]phenyl]methyl]thiazolium, hydroxide, inner salt]	96%

target: T1, PAF receptor (Oryctolagus cuniculus, UniProt G1TEI7); assay: Inhibition of PAF-induced aggregation in rabbit platelet rich plasma; format: cell-based, rabbit (male New Zealand White); conditions: not given
T1 construct: endogenous in cells; host or cells: rabbit platelets (male New Zealand White)
T1 sequence (G1TEI7 1-342): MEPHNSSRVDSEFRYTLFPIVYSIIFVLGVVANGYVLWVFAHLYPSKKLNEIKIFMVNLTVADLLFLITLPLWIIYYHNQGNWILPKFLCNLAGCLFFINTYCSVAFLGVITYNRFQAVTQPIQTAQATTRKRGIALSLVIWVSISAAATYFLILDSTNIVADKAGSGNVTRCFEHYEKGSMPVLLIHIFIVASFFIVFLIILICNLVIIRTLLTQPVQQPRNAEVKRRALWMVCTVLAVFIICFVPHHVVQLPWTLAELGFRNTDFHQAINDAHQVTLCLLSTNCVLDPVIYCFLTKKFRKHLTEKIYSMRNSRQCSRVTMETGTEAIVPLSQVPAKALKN
Method: Test compounds were evaluated as PAF receptor antagonists in vitro by measuring inhibition of PAF (platelet activating factor) induced platelet aggregation. Platelet aggregation was measured by a modification of the method described in A. Wissner, et. al., J. Med. Chem., 27, 1174, 1984.
Approximately 120-240 ml of blood were collected by cardiac puncture from unanesthetized male New Zealand White rabbits (Whaley's Summit View Farms, Belvedere, N.J.) with the use of 3.2% sodium citrate anticoagulant (1 part of citrate/10 parts of blood). All syringes and pipets were plastic. The blood was gently mixed and immediately centrifuged at 800 rpm for 10-15 minutes at room temperature to recover the platelet rich plasma (PRP). Platelet poor plasma (PPP) was prepared by centrifuging PRP at 2800 rpm for 10 minutes at room temperature.
Dilutions (1:3000) of PRP in Isoton® diluent were made and platelet counts were determined on a Coulter Thrombocounter which was standardized with platelet reference standards (Interscience Platelet Control, Portland, Oreg.). PRP platelet counts were adjusted to approximately 400,000-500,000 platelets/μl by the addition of PPP.
L-PAF was obtained from Calbiochem. A stock solution of 1-2 E-3M was prepared in 10% ethanol in water or 100% methanol and serial working dilutions were made using phosphate buffered saline (PBS). 1-2 E-3M stock solutions of test compounds were prepared in 100% methanol and serially diluted in PBS. All solutions were made up in plastic tubes, stored on ice and protected from heat and light. Solutions were prepared fresh or frozen at -20° C. and used within 48 hours.
Incubation mixtures consisted of 400 μl PRP, 50 μl of PBS diluent or test compound and 50 μl of PAF agonist. More specifically, 400 μl of PRP was stabilized in a cuvette for 1-2 minutes at 37° C. in the aggregometer to achieve a stable baseline, then 50 μl of PBS or test compound, was added and incubated for 5 minutes before addition of the challenge concentration of PAF (final concentration of 5E-8M or 1E-7M, as determined from the dose response curve for PAF for that experiment). Aggregation was monitored for 5 minutes. Samples containing test compound or diluent were run simultaneously for comparison. Test compounds were initially evaluated at a screening concentration of 1E-5M.
The recording equipment consisted of a dual channel Chronolog aggregometer connected to a dual channel 10 MV full scale deflection Omniscribe chart recorder (Houston Instruments). […] The bead suspension was used to set the 0% light transmission mark and clear water was used to set the 100% light transmission mark. These limits defined a full scale deflection. The aggregation traces were analyzed by a digitizing method (C. Kohler and B. Zoltan, J. Pharm. Methods, 12, 113, 1984) with x, y coordinate data stored in a computer file. A suitable program computed parameters of interest such as the magnitude of aggregation.

SMILES	IC50
CCCCCCCCCCCCCCCCCCNC(=O)Oc1cccc(OP(=O)([O-])Oc2cccc(C[n+]3csc(C)c3)c2)c1C [3-[[3-[[Hydroxy[2-methyl-3-[[(octadecylamino)carbonyl]oxy]phenoxy]phosphinyl]oxy]phenyl]methyl]-5-methylthiazolium, hydroxide, inner salt]	1.8 µM
CCCCCCCCCCCCCCCCCCNC(=O)Oc1cccc(OP(=O)([O-])Oc2cccc(C[n+]3ccsc3)c2)c1C [3-[[3-[[Hydroxy[2-methyl-3-[[(octadecylamino)carbonyl]oxy]phenoxy]phosphinyl]oxy]phenyl]methyl]thiazolium, hydroxide, inner salt]	3.72 µM

same assay, conditions: rabbit platelet rich plasma; PAF challenge 5E-8M; number of experiments in parentheses; read-out: IC50 inhibition of PAF-induced aggregation

SMILES	IC50
CCCCCCCCCCCCCCOc1cccc(OP(=O)([O-])Oc2cccc(C[n+]3cccc4ccccc43)c2)c1C(=O)OC [1-[[3-Hydroxy[2-(methoxycarbonyl)-3-(tetradecyloxy)-phenoxy]phosphinyl]oxy]phenyl]methyl]quinolinium, hydroxide, inner salt]	6.26 µM
CCCCCCCCCCCCCCOc1cccc(OP(=O)([O-])Oc2cccc(C[n+]3ccccc3)c2)c1OC [1-[[3-[[Hydroxy[2-methoxy-3-(tetradecyloxy)phenoxy]-phosphinyl]oxy]phenyl]methyl]-pyridinium, hydroxide, inner salt]	165 µM
CCCCCCCCCCCCCCOc1cccc(OP(=O)([O-])Oc2cccc(C[n+]3cccc4ccccc43)c2)c1OC [1-[[3-[[Hydroxy[2-methoxy-3-(tetradecyloxy)phenoxy]-phosphinyl]oxy]phenyl]methyl]-quinolinium, hydroxide, inner salt]	8 µM
CCCCCCCCCCCCCCCCOc1cccc(OP(=O)([O-])Oc2cccc(C[n+]3ccccc3)c2)c1 [1-[[3-[[[3-(Hexadecyloxy)phenoxy]hydroxyphosphinyl]-oxy]phenyl]methyl]-pyridinium, hydroxide inner salt]	15.4 µM
CCCCCCCCCCCCCCCCOc1cccc(OP(=O)(O)Oc2cccc(C[n+]3cccc4ccccc43)c2)c1 [1-[[3-[[[3-(Hexadecyloxy)phenoxy]hydroxyphosphinyl]-oxy]phenyl]methyl]-quinolinium, hydroxide]	21.8 µM
CCCCCCCCCCCCCCCCOc1cccc(OP(=O)([O-])Oc2cccc(C[n+]3cccc4ccccc43)c2)c1C [1-[[3-[[[3-(hexadecyloxy)-2-methylphenoxy]hydroxyphosphinyl]oxy]phenyl]methyl]quinolinium]	29.6 µM
CCCCCCCCCCCCCCOc1cccc(OP(=O)([O-])Oc2cccc(C[n+]3ccc4ccccc4c3)c2)c1OC [2-[[3-[[Hydroxy[2-methoxy-3-(tetradecyloxy)phenoxy]-phosphinyl]oxy]phenyl]methyl]-isoquinolinium, hydroxide, inner salt]	20 µM
CCCCCCCCCCCCCCCCOc1cccc(OP(=O)([O-])Oc2ccccc2C[n+]2ccsc2)c1 [3-[[2-[[[3-(Hexadecyloxy)phenoxy]hydroxyphosphinyl]oxy]phenyl]methyl]-thiazolium, hydroxide, inner salt]	6.36 µM
CCCCCCCCCCCCCCOc1ccccc1OP(=O)([O-])Oc1cccc(C[n+]2ccsc2)c1 [3-[[3-[ [Hydroxy[2-(tetradecyloxy)phenoxy]phosphinyl]-oxy]phenyl]methyl]thiazolium, hydroxide, inner salt]	57.5 µM
CCCCCCCCCCCCCCc1cccc(OP(=O)([O-])Oc2cccc(C[n+]3ccsc3)c2)c1 [3-[[3-[[Hydroxy(3-tetradecylphenoxy)phosphinyl]oxy]-phenyl]methyl]thiazolium, hydroxide, inner salt]	18.8 µM
CCCCCCCCCCCCCCOc1cccc(OP(=O)([O-])Oc2cccc(C[n+]3ccsc3)c2)c1C(=O)OC [3-[[3-[[Hydroxy[2-(methoxycarbonyl)-3-(tetradecyloxy)-phenoxy]phosphinyl]oxy]phenyl]methyl]-thiazolium, hydroxide, inner salt]	2.7 µM
CCCCCCCCCCCCCCOc1cccc(OP(=O)([O-])Oc2cccc(C[n+]3csc(C)c3)c2)c1C(=O)OC [3-[[3-[[Hydroxy[2-(methoxycarbonyl)-3-(tetradecyloxy)phenoxy]phosphinyl]oxy]phenyl]methyl]-5-methylthiazolium, hydroxide, inner salt]	0.521 µM
CCCCCCCCCCCCCCOc1cccc(OP(=O)([O-])Oc2cccc(C[n+]3csc(C)c3)c2)c1 [3-[[3-[[Hydroxy[3-(tetradecyloxy)phenoxy]phosphinyl]-oxy]phenyl]methyl]-5-methyl-thiazolium, hydroxide, inner salt]	8.82 µM
CCCCCCCCCCCCCCOc1cccc(OP(=O)([O-])Oc2cccc(C[n+]3ccsc3)c2)c1 [3-[[3-[[Hydroxy[3-(tetradecyloxy)phenoxy]phosphinyl]-oxy]phenyl]methyl]thiazolium, hydroxide, inner salt]	6.15 µM
Cc1c[n+](Cc2cccc(OP(=O)([O-])Oc3ccc(OCc4ccccc4)cc3)c2)cs1 [3-[[3-[[Hydroxy[4-(phenylmethoxy)phenoxy]phosphinyl]oxy]phenyl]methyl]-5-methyl-thiazolium, hydroxide, inner salt]	1530 µM
CCCCCCCCCCCCCCOc1cccc(COP(=O)([O-])Oc2cccc(C[n+]3ccsc3)c2)c1 [3-[[3-[[Hydroxy[[3-(tetradecyloxy)phenyl]methoxy]-phosphinyl]oxy]phenyl]methyl]thiazolium, hydroxide, inner salt]	4.22 µM
CCCCCCCCCCCCOc1cc(OP(=O)([O-])Oc2cccc(C[n+]3ccsc3)c2)c(C(C)(C)C)cc1C(C)(C)C [3-[[3-[[[2,4-Bis(1,1-dimethylethyl)-5-(dodecyloxy)phenoxy]hydroxyphosphinyl]oxy]phenyl]methyl]thiazolium, hydroxide, inner salt]	30.2 µM
CCCCCCCCCCCCOc1cc(C(C)(C)C)c(OP(=O)([O-])Oc2cccc(C[n+]3csc(C)c3)c2)cc1C(C)(C)C [3-[[3-[[[2,5-Bis(1,1-dimethylethyl)-4-(dodecyloxy)phenoxy] hydroxyphosphinyl]oxy]phenyl]methyl]-5-methyl-thiazolium, hydroxide, inner salt]	0.412 µM
CCCCCCCCCCCCOc1cccc(OP(=O)([O-])Oc2cccc(C[n+]3ccsc3)c2)c1OC [3-[[3-[[[3-(Dodecyloxy)-2-methoxyphenoxy]hydroxyphosphinyl]oxy]phenyl]methyl]thiazolium, hydroxide, inner salt]	1.72 µM
CCCCCCCCCCCCOc1cccc(OP(=O)([O-])Oc2cccc(C[n+]3ccsc3)c2)c1 [3-[[3-[[[3-(Dodecyloxy)phenoxy]hydroxyphosphinyl]-oxy]phenyl]methyl]thiazolium, hydroxide, inner salt]	52.8 µM
CCCCCCCCCCCCCCCCOc1ccc(OP(=O)([O-])Oc2cccc(C[n+]3ccsc3)c2)cc1 [3-[[3-[[[4-(Hexadecyloxy)phenoxy]hydroxyphosphinyl]-oxy]phenyl]methyl]thiazolium, hydroxide, inner salt]	3.28 µM
CCCCCCCCCCCCOc1ccc2ccc(OP(=O)([O-])Oc3cccc(C[n+]4ccsc4)c3)cc2c1 [3-[[3-[[[[7-(dodecyloxy)-2-naphthalenyl]oxy]hydroxyphosphinyl]oxy]phenyl]methyl]thiazolium, hydroxide, inner salt]	26.4 µM
CCCCCCCCCCCCOc1cccc(OP(=O)([O-])Oc2cccc(C[n+]3cccc4ccccc43)c2)c1OC [-[[3-[[[3-(Dodecyloxy)-2-methoxyphenoxy]hydroxyphosphinyl]oxy]phenyl]methyl]quinolinium, hydroxide, inner salt]	24.7 µM
